Data taken from patent publication US20080299109A1, “MECHANISM OF ASTRICYTE-NEURON SIGNALING” (Korea Institute of Science and Technology, priority 2007, published 2008).

Legend:
NR1/NR2A receptors = target: T1, NR1/NR2A receptors (Homo sapiens, UniProt Q05586+Q12879); test: Glutamate-induced currents in NR1/NR2A transfected HEK 293 cells, perforated patch; type: cell-based; conditions: 30 nM thrombin 30 s, −60 mV and +60 mV
T1 construct: expressed in transfected cells; host or cells: HEK 293 cells
Method: Whole-cell perforated-patch recording from cultured cortical neurons or HEK cells under voltage clamp (holding potential −60 mV) was made with an Axopatch 200B amplifier (Axon Instruments, Union City, Calif.). The recording chamber was continually perfused with a recording solution comprised of 150 mM NaCl, 3 mM KCl, 2 mM CaCl2, 5.5 mM glucose, and 10 mM HEPES (pH 7.4 by NaOH; osmolality adjusted to 315-320 mOsm with sucrose). Recording electrodes (4-7 MΩ) were filled with (in mM) 150 mM CsMeSO4, 10 mM NaCl, 0.5 CaCl2, 10 mM HEPES, and 25-50 μg/ml gramicidin D (pH adjusted to 7.3 with CsOH and osmolality adjusted to 310 mOsm with sucrose). It took 20-30 min to achieve acceptable perforation with series resistance ranging from 30-60 MΩ. All electrophysiological data from cultured neurons cells in this study were collected at room temperature (23-26° C.).
The external solution included 0.2 mM MgCl2, 2 mM CaCl2, 100 nM ZnCl2, and 50 μM glycine. […] The response from the same cell is shown after a treatment of 30 nM thrombin for 30 s. […] The peak amplitudes of glutamate-induced currents were compared before and after thrombin treatment at −60 mV and +60 mV holding potentials.

synaptic NMDA receptors = test: Evoked NMDA EPSC current-voltage relationship in CA1 pyramidal cells; type: cell-based, rat; conditions: 30 nM thrombin, 0.2 mM Mg^2+
Method: (§1) Young rats (Sprague-Dawley, age P15-P20) or mice (C57/B16, age P14-19) were deeply anesthetized with isoflurane and decapitated. The brain was rapidly removed and submerged in an ice-cold oxygenated artificial cerebrospinal fluid (ACSF) comprised of 130 mM NaCl, 24 mM NaHCO3, 3.5 mM KCl, 1.25 mM NaH2PO4, 1 mM CaCl2,3 mM MgCl2, and 10 mM glucose saturated with 95% O2/5% CO2, at pH 7.4.
Slices were placed on the stage of an upright microscope underneath a platinum and nylon restraining grid, and superfused with oxygenated ACSF at room temperature (23° C.), some experiments are performed at 34° C. by a temperature controller (TC-344B, Warner, Hamden). The standard ACSF recording solution was comprised of 130 mM NaCl, 24 mM NaHCO3, 3.5 mM KCl, 1.25 mM NaH2PO4, 1.5 mM CaCl2, 1.5 mM MgCl2, and 10 mM glucose saturated with 95% O2/5% CO2, at pH 7.4. […]
Synaptic responses were evoked by applying 0.1 ms current injection (1-100 μA) to a bipolar stimulating electrode placed in the stratum radiatum. Thrombin (Calbiochem) concentration was determined as described by Gingrich et al. (2000) using conversion of 1 U/ml=10 nM. […]
EPSCs were evoked by electrical stimulation of Schaffer collateral axons in the CA1 stratum radiatum, and recorded from CA1 pyramidal neurons under voltage clamp. […]

CA1 pyramidal cells = test: Current clamp membrane potential of CA1 pyramidal cells in hippocampal slices; type: cell-based, rat; conditions: 30 nM thrombin
Method: as §1
The hemisected brain was glued onto the stage of a vibrating microtome (Leica VT1000 S) and sections of 300 μm thickness were cut and stored in an incubation chamber at room temperature for about 1 h before use. For voltage clamp experiments, the solution used to fill the electrodes was comprised of 140 mM Cs-MeSO4, 10 mM HEPES, 7 mM NaCl, 4 mM Mg-ATP, and 0.3 mM Na3-GTP; the solution for current clamp recordings was comprised of 140 mM K-MeSO4, 10 mM HEPES, 7 mM NaCl, 4 mM Mg-ATP, and 0.3 mM Na3-GTP, and supplemented with 1 mM QX314; and 1 mM QX314 was omitted from some current clamp recordings (e.g., FIG. 9e).
Slices were placed on the stage of an upright microscope underneath a platinum and nylon restraining grid, and superfused with oxygenated ACSF at room temperature (23° C.), some experiments are performed at 34° C. by a temperature controller (TC-344B, Warner, Hamden). The standard ACSF recording solution was comprised of 130 mM NaCl, 24 mM NaHCO3, 3.5 mM KCl, 1.25 mM NaH2PO4, 1.5 mM CaCl2, 1.5 mM MgCl2, and 10 mM glucose saturated with 95% O2/5% CO2, at pH 7.4. For some experiments 0.5-1 μM TTX, 10 μM NBQX, or 10-20 μM bicuculline were added to the extracellular solution, extracellular Mg^2+ was reduced to 5 μM, and/or extracellular Ca^2+ raised to 2 mM.
Visually guided whole-cell patch recordings were obtained from CA1 pyramidal neurons in a voltage clamp or current clamp configuration using an Axopatch 200A (Axon Instruments) and a borosilicate patch pipette of 5-7 MΩ resistance. […] Records were filtered at 5 kHz and digitized at 20 kHz using a Digidata 1200 A/D board.
Synaptic responses were evoked by applying 0.1 ms current injection (1-100 μA) to a bipolar stimulating electrode placed in the stratum radiatum. Thrombin (Calbiochem) concentration was determined as described by Gingrich et al. (2000) using conversion of 1 U/ml=10 nM. TFLLR and thrombin were applied by gravity perfusion at 1.0 ml/min, with extensive washing of perfusion lines, chamber, and objective between experiments to remove all residual thrombin, which has been reported to irreversibly cleave and PAR1 at a pM concentration. Removal of all thrombin ensured that PAR1 receptors were not pre-cleaved by residual thrombin prior to experimentation.

T1 sequence (Q12879 23-1464, other chains not shown): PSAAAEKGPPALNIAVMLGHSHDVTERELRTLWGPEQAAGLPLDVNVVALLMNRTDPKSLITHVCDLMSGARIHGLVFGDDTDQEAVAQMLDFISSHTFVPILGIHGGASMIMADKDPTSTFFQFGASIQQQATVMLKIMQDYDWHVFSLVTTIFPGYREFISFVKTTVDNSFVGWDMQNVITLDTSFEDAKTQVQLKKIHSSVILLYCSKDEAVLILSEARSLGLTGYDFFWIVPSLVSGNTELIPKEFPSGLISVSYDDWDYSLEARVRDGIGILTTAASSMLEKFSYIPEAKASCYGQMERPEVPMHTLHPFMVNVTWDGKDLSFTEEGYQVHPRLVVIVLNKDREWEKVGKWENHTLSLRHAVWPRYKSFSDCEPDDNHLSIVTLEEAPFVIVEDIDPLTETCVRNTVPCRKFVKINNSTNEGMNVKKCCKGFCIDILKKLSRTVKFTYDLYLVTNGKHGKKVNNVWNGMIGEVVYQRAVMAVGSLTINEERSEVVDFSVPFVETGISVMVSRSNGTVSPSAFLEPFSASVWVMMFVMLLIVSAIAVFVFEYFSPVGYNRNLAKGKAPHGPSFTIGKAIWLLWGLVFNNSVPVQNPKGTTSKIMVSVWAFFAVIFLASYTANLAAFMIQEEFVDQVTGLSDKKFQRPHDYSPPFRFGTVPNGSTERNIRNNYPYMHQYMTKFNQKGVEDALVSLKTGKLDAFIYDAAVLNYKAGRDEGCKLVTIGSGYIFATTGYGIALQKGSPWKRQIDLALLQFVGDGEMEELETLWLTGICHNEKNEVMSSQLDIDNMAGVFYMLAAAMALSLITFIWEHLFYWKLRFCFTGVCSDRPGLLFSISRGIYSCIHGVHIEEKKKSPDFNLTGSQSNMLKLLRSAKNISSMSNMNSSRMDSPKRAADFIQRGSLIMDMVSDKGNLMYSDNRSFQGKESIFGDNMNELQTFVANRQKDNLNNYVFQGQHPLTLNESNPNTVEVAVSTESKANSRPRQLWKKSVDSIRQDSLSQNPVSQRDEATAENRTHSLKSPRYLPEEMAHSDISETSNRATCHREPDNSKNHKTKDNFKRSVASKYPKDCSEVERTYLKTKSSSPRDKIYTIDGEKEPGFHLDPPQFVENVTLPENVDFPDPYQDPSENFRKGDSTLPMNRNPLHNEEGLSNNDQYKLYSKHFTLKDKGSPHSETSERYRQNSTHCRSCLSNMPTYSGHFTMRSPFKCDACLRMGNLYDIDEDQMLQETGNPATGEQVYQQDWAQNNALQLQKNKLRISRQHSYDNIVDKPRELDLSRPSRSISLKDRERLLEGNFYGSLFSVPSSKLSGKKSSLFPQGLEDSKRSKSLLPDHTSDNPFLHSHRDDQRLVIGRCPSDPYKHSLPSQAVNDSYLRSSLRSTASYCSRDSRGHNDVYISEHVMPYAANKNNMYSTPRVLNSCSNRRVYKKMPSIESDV

Substance: thrombin
- glutamate-induced current profile before and after thrombin (NR1/NR2A receptors): no change
- Mg^2+ block of NMDA EPSCs at −60 mV (synaptic NMDA receptors): significantly less Mg^2+ block
- membrane depolarization (CA1 pyramidal cells; 1.5 mM Mg^2+, n=22): 5.7±0.9 mV
- depolarization of the membrane potential at 23° C. (CA1 pyramidal cells; with or without APV 100 μM): 5.8±1.7 mV
- depolarization of the membrane potential at 34° C. (CA1 pyramidal cells; with or without APV 100 μM): 4.3±1.0 mV
